Assay results as given in paper PMC7023064, “Design, Synthesis, and Evaluation of Novel 2-Methoxyestradiol Derivatives as Apoptotic Inducers through an Intrinsic Apoptosis Pathway” (Biomolecules, 2020).
Where two headings read alike, the source gives them in different places.

Assays:
[1] = test system: human breast adenocarcinoma MCF-7 cell lines; test: MTT cytotoxicity assay, MCF-7; assay type: cell-based
Description: (§1) Human breast adenocarcinoma MCF-7 cell lines, human breast cancer MDA-MB-231 cell lines, and the normal human liver L-O2 cell lines were provided by Nanjing KeyGen Biotech Co. Ltd. (Nanjing, China). MCF-7 cells were cultured in a base medium (90% RPMI-1640 and 10% FBS) at 37 °C, 5% CO2 and a saturated humidity atmosphere. MDA-MB-231 cells were cultured in a base medium (90% […] and 10% FBS) at 37 °C, 5% CO2 and a saturated humidity atmosphere. L-O2 cells were cultured in a base medium (90% DMEM and 10% FBS) at 37 °C, 5% CO2 and a saturated humidity atmosphere.
(§2) The cytotoxicity of the tested compounds was determined using the 3-(4,5-dimethyl-2-thiazolyl)-2,5-diphenyl-2-H-tetrazolium bromide (MTT) assay. Cells were seeded in 96-well plates and incubated in a 5% CO2 incubator at 37 °C. When the cells adhered, compounds at different concentrations were added to every well. After incubation for another 72 h, MTT solution (5 mg/mL) was added into each well and cells were incubated for an additional 4 h. The viable cells were stained with MTT and scanned with an electrophotometer at 570 nm. Each concentration treatment was done in triplicate wells. The half maximal inhibitory concentration (IC50) values were estimated by fitting the inhibition data to a dose-dependent curve using a logistic derivative equation.

[2] = test system: human breast cancer MDA-MB-231 cell lines; test: MTT cytotoxicity assay, MDA-MB-231; assay type: cell-based; conditions: mean ± SD of three experiments
Description: as §1, §2

[3] = test system: normal human liver L-O2 cell lines; test: MTT cytotoxicity assay, L-O2; assay type: cell-based; conditions: mean ± SD of three experiments, No = No inhibition detected
Description: as §1, §2

[4] = test system: MCF-7 and MDA-MB-231 cell lines; test: MTT assay, summary over tested tumor cells; assay type: cell-based, human; conditions: Homo sapiens; MCF-7 and MDA-MB-231; read-out: IC50, anti-proliferative activity against tested tumor cells
Description: as §1, §2

[5] = MTT, 72 h, mean ± SD of three experiments, read-out: IC50 MCF-7
[6] = Table 2, mean ± SD of three experiments, read-out: IC50 for MCF-7
[7] = Homo sapiens, MCF7, MTT, 72 h, mean ± SD of three experiments, read-out: IC50 MCF-7
[8] = Homo sapiens, MCF7, Table 2, mean ± SD of three experiments, read-out: IC50 for MCF-7
[9] = Homo sapiens, MCF7, pIC50 = −log(IC50), read-out: pIC50 for MCF-7 (converted)

Molecule | IC50 [1, 5] | IC50 [1, 6] | pIC50 for MCF-7 ([1]; pIC50 = −log(IC50)) | IC50 ([2]; 72 h) | IC50 ([3]; 72 h) | IC50 [1, 7] | IC50 [1, 8] | IC50 [1, 9] | IC50 ([2]; Homo sapiens, MDA-MB-231, 72 h) | IC50 L-O2 ([3]; 72 h) | melting point | IC50 ([3]; Homo sapiens, L02, 72 h) | IC50 [4]
3-[8-(Uracil-3-yl)-Octyloxy]-2-Methoxy-Estra-1,3,5(10)-Triene-17β-ol [Compound 22a] | 10.3 ± 0.37 µM | 10.3 ± 0.37 µM | 4.99 | 9.58 ± 0.98 µM | 25.9 ± 1.82 µM | – | – | – | – | – | – | – | –
COc1cc2c(cc1O)CC[C@@H]1[C@@H]2CC[C@]2(C)[C@@H](OCCCCCCCCn3ccc(=O)n(CCCCCCCCO[C@H]4CC[C@H]5[C@@H]6CCc7cc(O)c(OC)cc7[C@H]6CC[C@]45C)c3=O)CC[C@@H]12 [Compound 14b, 1,3-Bis-{8-[2-Methoxy-3-Hydroxy-Estra-1,3,5(10)-Triene-17β-yl-Oxy]-Octyl}-Uracil] | – | – | – | – | – | > 100 µM | > 100 µM | > 100 µM | > 100 µM | No | 73 to 75 °C | – | –
3-[6-(Uracil-3-yl)-Hexyloxy]-2-Methoxy-Estra-1,3,5(10)-Triene-17β-ol [Compound 20a] | 17.9 ± 0.22 µM | 17.9 ± 0.22 µM | 4.75 | 14 ± 1.69 µM | 38.5 ± 1.87 µM | – | – | – | – | – | – | – | –
COc1cc2c(cc1O)CC[C@@H]1[C@@H]2CC[C@]2(C)[C@@H](OCCCCCCCCn3cc(C)c(=O)n(CCCCCCCCO[C@H]4CC[C@H]5[C@@H]6CCc7cc(O)c(OC)cc7[C@H]6CC[C@]45C)c3=O)CC[C@@H]12 [Compound 15b, 1,3-bis-{8-[2-Methoxy-3-Hydroxy-Estra-1,3,5(10)-Triene-17β-yl-oxy]-Octyl}-5-Methyl-Uracil] | – | – | – | – | – | > 100 µM | > 100 µM | > 100 µM | > 100 µM | No | 73 to 75 °C | – | –
3-[8-(5-Methyl-Uracil-3-yl)-Octyloxy]-2-Methoxy-Estra-1,3,5(10)-Triene-17β-ol [Compound 23a] | 8.75 ± 0.22 µM | 8.75 ± 0.22 µM | 5.06 | 12.7 ± 0.22 µM | 25.5 ± 1.86 µM | – | – | – | – | – | – | – | –
COc1cc2c(cc1O)CC[C@@H]1[C@@H]2CC[C@]2(C)[C@@H](OCCCCCCn3ccc(=O)n(CCCCCCO[C@H]4CC[C@H]5[C@@H]6CCc7cc(O)c(OC)cc7[C@H]6CC[C@]45C)c3=O)CC[C@@H]12 [Compound 12b, 1,3-bis-{6-[2-Methoxy-3-Hydroxy-Estra-1,3,5(10)-Triene-17β-yl-oxy]-Hexyl}-Uracil] | – | – | – | – | – | > 100 µM | > 100 µM | > 100 µM | > 100 µM | No ^b | 71 to 73 °C | – | –
COc1cc2c(cc1OCCCCCCCCn1cc(C)c(=O)n(CCCCCCCCOc3cc4c(cc3OC)[C@H]3CC[C@]5(C)[C@@H](O)CC[C@H]5[C@@H]3CC4)c1=O)CC[C@@H]1[C@@H]2CC[C@]2(C)[C@@H](O)CC[C@@H]12 [Compound 23b, 1,3-bis-{8-[2-Methoxy-17β-Hydroxy-Estra-1,3,5(10)-Triene-3-yl-Oxy]-octyl}-5-Methyl-Uracil] | – | – | – | – | – | > 100 µM | > 100 µM | > 100 µM | > 100 µM | No | 75 to 76 °C | – | –
COc1cc2c(cc1O)CC[C@@H]1[C@@H]2CC[C@]2(C)[C@@H](OCCCCCCn3c(=O)ccn([C@@H]4O[C@H](CO)[C@@H](O)[C@H]4O)c3=O)CC[C@@H]12 [Compound 10, 17 β-[6-(1-β-D-Ribofuranosyluracil-3-yl)-Hexyloxy]-2-Methoxy-Estra-1,3,5(10)-Triene-3-ol] | – | – | – | – | – | 16.7 ± 0.3 µM | 16.7 ± 0.3 µM | 16.6 µM | 13.2 ± 1.09 µM | – | 79 to 81 °C | 35.2 ± 0.42 µM | 3.89 to 16.7 µM
COc1cc2c(cc1OCCCCCCn1ccc(=O)n(CCCCCCOc3cc4c(cc3OC)[C@H]3CC[C@]5(C)[C@@H](O)CC[C@H]5[C@@H]3CC4)c1=O)CC[C@@H]1[C@@H]2CC[C@]2(C)[C@@H](O)CC[C@@H]12 [Compound 20b, 1,3-Bis-{6-[2-Methoxy-17β-Hydroxy-Estra-1,3,5(10)-Triene-3-yl-Oxy]-Hexyl}-Uracil] | – | – | – | – | – | > 100 µM | > 100 µM | > 100 µM | > 100 µM | No | 93 to 94 °C | – | –
COc1cc2c(cc1OCCCCCCCCn1c(=O)ccn([C@@H]3O[C@H](CO)[C@@H](O)[C@H]3O)c1=O)CC[C@@H]1[C@@H]2CC[C@]2(C)[C@@H](O)CC[C@@H]12 [Compound 19, 3-[8-(1-β-D-Ribofuranosyluracil-3-yl)-Octyloxy]-2-Methoxy-Estra-1,3,5(10)-Triene-17β-ol] | – | – | – | – | – | 7.87 ± 0.42 µM | 7.87 ± 0.42 µM | 7.94 µM | 10.44 ± 0.07 µM | – | 93 to 95 °C | 32.8 ± 0.65 µM | 3.89 to 16.7 µM
17 β-[8-(Uracil-3-yl)-Octyloxy]-2-Methoxy-Estra-1,3,5(10)-Triene-3-ol [Compound 14a] | 9.22 ± 0.21 µM | 9.22 ± 0.21 µM | 5.04 | 8 ± 0.41 µM | 17.5 ± 0.69 µM | – | – | – | – | – | – | – | –
COc1cc2c(cc1OCCCCCCCCn1ccc(=O)n(CCCCCCCCOc3cc4c(cc3OC)[C@H]3CC[C@]5(C)[C@@H](O)CC[C@H]5[C@@H]3CC4)c1=O)CC[C@@H]1[C@@H]2CC[C@]2(C)[C@@H](O)CC[C@@H]12 [Compound 22b, 1,3-Bis-{8-[2-Methoxy-17β-Hydroxy-Estra-1,3,5(10)-Triene-3-yl-Oxy]-Octyl}-Uracil] | – | – | – | – | – | > 100 µM | > 100 µM | > 100 µM | > 100 µM | No | 74 to 76 °C | – | –
17 β-[6-(5-Methyl-Uracil-3-yl)-Hexyloxy]-2-Methoxy-Estra-1,3,5(10)-Triene-3-ol [Compound 13a] | 16.6 ± 1.26 µM | 16.6 ± 1.26 µM | 4.78 | 13.3 ± 0.16 µM | 51.4 ± 1.47 µM | – | – | – | – | – | – | – | –
O=c1[nH]cc(F)c(=O)[nH]1 [Compound 5-FU, reference compound] | 8.87 ± 0.59 µM | – | – | 61.9 ± 2.23 µM | > 100 µM | – | – | – | – | – | – | – | –
3-[6-(5-Methyl-Uracil-3-yl)-Hexyloxy]-2-Methoxy-Estra-1,3,5(10)-Triene-17β-ol [Compound 21a] | 9.97 ± 0.39 µM | 9.97 ± 0.39 µM | 5.00 | 7.34 ± 0.56 µM | 28.2 ± 0.57 µM | – | – | – | – | – | – | – | –
COc1cc2c(cc1O)CC[C@@H]1[C@@H]2CC[C@]2(C)[C@@H](O)CC[C@@H]12 [Compound 1, 2-Methoxyestradiol] | – | – | – | – | – | 1.51 ± 0.04 µM | 1.51 ± 0.04 µM | 1.51 µM | 1.86 ± 0.02 µM | – | – | 4.7 ± 0.45 µM | –
17 β-[8-(5-Methyl-Uracil-3-yl)-Octyloxy]-2-Methoxy-Estra-1,3,5(10)-Triene-3-ol [Compound 15a] | 12.1 ± 0.45 µM | 12.1 ± 0.45 µM | 4.92 | 19.3 ± 1.54 µM | 52.6 ± 1.82 µM | – | – | – | – | – | – | – | –
COc1cc2c(cc1O)CC[C@@H]1[C@@H]2CC[C@]2(C)[C@@H](OCCCCCCn3cc(C)c(=O)n(CCCCCCO[C@H]4CC[C@H]5[C@@H]6CCc7cc(O)c(OC)cc7[C@H]6CC[C@]45C)c3=O)CC[C@@H]12 [Compound 13b, 1,3-Bis-{6-[2-Methoxy-3-Hydroxy-Estra-1,3,5(10)-Triene-17β-yl-oxy]-Hexyl}-5-Methyl-Uracil] | – | – | – | – | – | > 100 µM | > 100 µM | > 100 µM | > 100 µM | No | 84 to 86 °C | – | –
